# Measurements: patent US10472358B2, “1H-pyrrolo[2,3-c]pyridin-7(6H)-ones and pyrazolo[3,4-c]pyridin-7(6H)-ones as inhibitors of BET proteins” (Incyte Corporation, priority 2014, dated 2019)
# Tested on: KMS.12.BM cells
# Test: KMS.12.BM cell viability assay (Cell Titer-GLO, ATP quantitation)
# Assay type: cell-based
# Conditions: KMS-12-BM, 72 h; human myeloma cells, 3 days, concentration required for 50% cell death
# Protocol: Example B1: KMS.12.BM Cell Viability Assay
# KMS.12.BM cell line (human myeloma) was purchased from JCRB (Osaka, Japan) and maintained in RPMI with 10% FBS culture medium. To measure the cytotoxic activity of the compounds through ATP quantitation, the KMS.12.BM cells are plated in the RPMI culture medium at 5000 cells/well/per 100 μL into a 96-well polystyrene clear black tissue culture plate (Greiner-bio-one through VWR, NJ), in the presence or absence of a concentration range of test compounds. After 3 days, […] Cell Titer-GLO Luminescent (Promega, Madison, Wis.) cell culture agent is added to each well for 10 minutes at room temperature to stabilize the luminescent signal. This determines the number of viable cells in culture based on quantitation of the ATP present, which signals the presence of metabolically active cells. Luminescence is measured with the Top Count 384 (Packard Bioscience through Perkin Elmer, Boston, Mass.). Compound inhibition is determined relative to cells cultured with no drug and the IC50 is reported as the compound concentration required for 50% cell death.
row,Compound,IC50
1,"CC(O)c1cc2c(c(-c3cn(C)c(=O)c4[nH]ccc34)c1)OC(C)(C)C(=O)N2 (centres unmarked) [Example 81, 6-(1-hydroxyethyl)-2,2-dimethyl-8-(6-methyl-7-oxo-6,7-dihydro-1H-pyrrolo[2,3-c]pyridin-4-yl)-2H-1,4-benzoxazin-3(4H)-one]",≤ 1000 nM
2,"Cn1cc(-c2cccc3c2OC(C2CC2)C(=O)N3)c2cc[nH]c2c1=O (centres unmarked) [Example 6, 2-cyclopropyl-8-(6-methyl-7-oxo-6,7-dihydro-1H-pyrrolo[2,3-c]pyridin-4-yl)-2H-1,4-benzoxazin-3(4H)-one]",≤ 1000 nM
3,"CC(C)C1Oc2c(-c3cn(C)c(=O)c4[nH]ccc34)cc(S(=O)(=O)N(C)C)cc2N(C)C1=O (centres unmarked) [Example 71, 2-isopropyl-N,N,4-trimethyl-8-(6-methyl-7-oxo-6,7-dihydro-1H-pyrrolo[2,3-c]pyridin-4-yl)-3-oxo-3,4-dihydro-2H-1,4-benzoxazine-6-sulfonamide]",≤ 1000 nM
4,"CC(C)S(=O)(=O)c1cc(-c2cn(C)c(=O)c3[nH]ccc23)c2c(c1)N(C)C(=O)C(C)(C)O2 [Example 77, 6-(isopropylsulfonyl)-2,2,4-trimethyl-8-(6-methyl-7-oxo-6,7-dihydro-1H-pyrrolo[2,3-c]pyridin-4-yl)-2H-1,4-benzoxazin-3(4H)-one]",≤ 1000 nM
5,"COc1cc2c(c(-c3cn(C)c(=O)c4[nH]ncc34)c1)OC(C(C)C)C(=O)N2 (centres unmarked) [Example 26, 2-isopropyl-6-methoxy-8-(6-methyl-7-oxo-6,7-dihydro-1H-pyrazolo[3,4-c]pyridin-4-yl)-2H-1,4-benzoxazin-3(4H)-one]",≤ 1000 nM
6,"Cn1cc(-c2cc(S(=O)(=O)N3CCCCC3)cc3c2OC(C)(C)C(=O)N3)c2cc[nH]c2c1=O [Example 72, 2,2-dimethyl-8-(6-methyl-7-oxo-6,7-dihydro-1H-pyrrolo[2,3-c]pyridin-4-yl)-6-(piperidin-1-ylsulfonyl)-2H-1,4-benzoxazin-3(4H)-one]",≤ 1000 nM
7,"COc1cc2c(c(-c3cn(C)c(=O)c4[nH]ccc34)c1)OC(c1ccccc1)C(=O)N2 (single isomer, unassigned) [Example 24A, 6-methoxy-8-(6-methyl-7-oxo-6,7-dihydro-1H-pyrrolo[2,3-c]pyridin-4-yl)-2-phenyl-2H-1,4-benzoxazin-3(4H)-one]",≤ 1000 nM
8,"Cn1cc(-c2cccc3c2OC(c2ccccc2)C(=O)N3)c2cc[nH]c2c1=O (centres unmarked) [Example 1, 8-(6-methyl-7-oxo-6,7-dihydro-1H-pyrrolo[2,3-c]pyridin-4-yl)-2-phenyl-2H-1,4-benzoxazin-3(4H)-one]",≤ 1000 nM
9,"CC(C)C1Oc2c(cc(CO)cc2-c2cn(C)c(=O)c3[nH]ccc23)NC1=O (centres unmarked) [Example 36, 6-(hydroxymethyl)-2-isopropyl-8-(6-methyl-7-oxo-6,7-dihydro-1H-pyrrolo[2,3-c]pyridin-4-yl)-2H-1,4-benzoxazin-3(4H)-one]",≤ 1000 nM
10,"CC(C)C1Oc2c(cc(C#N)cc2-c2cn(C)c(=O)c3[nH]ccc23)NC1=O (centres unmarked) [Example 17, 2-isopropyl-8-(6-methyl-7-oxo-6,7-dihydro-1H-pyrrolo[2,3-c]pyridin-4-yl)-3-oxo-3,4-dihydro-2H-1,4-benzoxazine-6-carbonitrile]",≤ 1000 nM
11,"CC(C)C1Oc2c(cc(S(C)(=O)=O)cc2-c2cn(C)c(=O)c3[nH]ncc23)NC1=O (centres unmarked) [Example 84, 2-isopropyl-8-(6-methyl-7-oxo-6,7-dihydro-1H-pyrazolo[3,4-c]pyridin-4-yl)-6-(methylsulfonyl)-2H-1,4-benzoxazin-3(4H)-one]",≤ 1000 nM
12,"CC1Oc2c(cccc2-c2cn(C)c(=O)c3[nH]ccc23)NC1=O (centres unmarked) [Example 3, 2-methyl-8-(6-methyl-7-oxo-6,7-dihydro-1H-pyrrolo[2,3-c]pyridin-4-yl)-2H-1,4-benzoxazin-3(4H)-one]",≤ 1000 nM
13,"COc1cc2c(c(-c3cn(C)c(=O)c4[nH]ccc34)c1)OC(C(C)C)C(=O)N2 (single isomer, unassigned) [Example 9A, 2-isopropyl-6-methoxy-8-(6-methyl-7-oxo-6,7-dihydro-1H-pyrrolo[2,3-c]pyridin-4-yl)-2H-1,4-benzoxazin-3(4H)-one]",≤ 1000 nM
14,"Cn1cc(-c2cccc3c2NC(C)(C)C(=O)N3)c2cc[nH]c2c1=O [Example 32, 3,3-dimethyl-5-(6-methyl-7-oxo-6,7-dihydro-1H-pyrrolo[2,3-c]pyridin-4-yl)-3,4-dihydroquinoxalin-2(1H)-one]",≤ 1000 nM
15,"Cn1cc(-c2cc(S(C)(=O)=O)cc3c2NC2(CCCC2)C(=O)N3)c2cc[nH]c2c1=O [Example 59, 8′-(6-methyl-7-oxo-6,7-dihydro-1H-pyrrolo[2,3-c]pyridin-4-yl)-6′-(methylsulfonyl)-1′,4′-dihydro-3′H-spiro[cyclopentane-1,2′-quinoxalin]-3′-one]",≤ 1000 nM
16,"COc1cc2c(c(-c3cn(C)c(=O)c4[nH]ccc34)c1)OC(C1CCCC1)C(=O)N2 (single isomer, unassigned) [Example 35A, 2-Cyclopentyl-6-methoxy-8-(6-methyl-7-oxo-6,7-dihydro-1H-pyrrolo[2,3-c]pyridin-4-yl)-2H-1,4-benzoxazin-3(4H)-one]",≤ 1000 nM
17,"CN1C(=O)C2(CC2)Oc2c(-c3cn(C)c(=O)c4[nH]ncc34)cc(S(C)(=O)=O)cc21 [Example 66, 4-methyl-8-(6-methyl-7-oxo-6,7-dihydro-1H-pyrazolo[3,4-c]pyridin-4-yl)-6-(methylsulfonyl)spiro[1,4-benzoxazine-2,1′-cyclopropan]-3(4H)-one]",≤ 1000 nM
18,"Cn1cc(-c2cc(S(C)(=O)=O)cc3c2OC(CCO)C(=O)N3)c2cc[nH]c2c1=O (centres unmarked) [Example 48, 2-(2-hydroxyethyl)-8-(6-methyl-7-oxo-6,7-dihydro-1H-pyrrolo[2,3-c]pyridin-4-yl)-6-(methylsulfonyl)-2H-1,4-benzoxazin-3(4H)-one]",≤ 1000 nM
19,"CNC(=O)CN1C(=O)C(C(C)C)Oc2c(-c3cn(C)c(=O)c4[nH]ccc34)cc(OC)cc21 (centres unmarked) [Example 12, 2-[2-isopropyl-6-methoxy-8-(6-methyl-7-oxo-6,7-dihydro-1H-pyrrolo[2,3-c]pyridin-4-yl)-3-oxo-2,3-dihydro-4H-1,4-benzoxazin-4-yl]-N-methylacetamide]",≤ 1000 nM
20,"COc1cc(-c2cn(C)c(=O)c3[nH]ccc23)c2c(c1)N(C)CC(C(C)C)O2 (centres unmarked) [Example 22, 4-(2-isopropyl-6-methoxy-4-methyl-3,4-dihydro-2H-1,4-benzoxazin-8-yl)-6-methyl-1,6-dihydro-7H-pyrrolo[2,3-c]pyridin-7-one]",1000 to 10000 nM
21,"CC(O)c1cc2c(c(-c3cn(C)c(=O)c4[nH]ccc34)c1)OC(C(C)C)C(=O)N2 (centres unmarked) [Example 50, 6-(1-hydroxyethyl)-2-isopropyl-8-(6-methyl-7-oxo-6,7-dihydro-1H-pyrrolo[2,3-c]pyridin-4-yl)-2H-1,4-benzoxazin-3(4H)-one]",≤ 1000 nM
22,"CCN1C(=O)C(C(C)C)Oc2c(-c3cn(C)c(=O)c4[nH]ccc34)cc(S(C)(=O)=O)cc21 (centres unmarked) [Example 54, 4-ethyl-2-isopropyl-8-(6-methyl-7-oxo-6,7-dihydro-1H-pyrrolo[2,3-c]pyridin-4-yl)-6-(methylsulfonyl)-2H-1,4-benzoxazin-3(4H)-one]",≤ 1000 nM
23,"CC(C)[C@@H]1Nc2c(cc(S(C)(=O)=O)cc2-c2cn(C)c(=O)c3[nH]ccc23)NC1=O [Example 60, (3S)-3-isopropyl-5-(6-methyl-7-oxo-6,7-dihydro-1H-pyrrolo[2,3-c]pyridin-4-yl)-7-(methylsulfonyl)-3,4-dihydroquinoxalin-2(1H)-one]",≤ 1000 nM
24,"CC(C)C1Oc2c(-c3cn(C)c(=O)c4[nH]ccc34)cc(C(N)=O)cc2N(C)C1=O (centres unmarked) [Example 19, 2-isopropyl-4-methyl-8-(6-methyl-7-oxo-6,7-dihydro-1H-pyrrolo[2,3-c]pyridin-4-yl)-3-oxo-3,4-dihydro-2H-1,4-benzoxazine-6-carboxamide]",≤ 1000 nM
25,"Cn1cc(-c2cc(S(C)(=O)=O)cc3c2NC(C)(C)C(=O)N3)c2cc[nH]c2c1=O [Example 58, 3,3-dimethyl-5-(6-methyl-7-oxo-6,7-dihydro-1H-pyrrolo[2,3-c]pyridin-4-yl)-7-(methylsulfonyl)-3,4-dihydroquinoxalin-2(1H)-one]",≤ 1000 nM
26,"CC(C)C1Oc2c(cc(S(C)(=O)=O)cc2-c2cn(C)c(=O)c3[nH]ccc23)NC1=O (centres unmarked) [Example 44, 2-isopropyl-8-(6-methyl-7-oxo-6,7-dihydro-1H-pyrrolo[2,3-c]pyridin-4-yl)-6-(methylsulfonyl)-2H-1,4-benzoxazin-3(4H)-one]",≤ 1000 nM
27,"COc1cc2c(c(-c3cn(C)c(=O)c4[nH]ncc34)c1)OC(C1CCCC1)C(=O)N2 (centres unmarked) [Example 42, 2-Cyclopentyl-6-methoxy-8-(6-methyl-7-oxo-6,7-dihydro-1H-pyrazolo[3,4-c]pyridin-4-yl)-2H-1,4-benzoxazin-3(4H)-one]",≤ 1000 nM

# Same assay, conditions: human myeloma cells, 3 days, concentration required for 50% cell death
row,Compound,IC50
1,"COc1cc2c(c(-c3cn(C)c(=O)c4[nH]ccc34)c1)OC(c1ccccc1)C(=O)N2 (single isomer, unassigned) [Example 24B, 6-methoxy-8-(6-methyl-7-oxo-6,7-dihydro-1H-pyrrolo[2,3-c]pyridin-4-yl)-2-phenyl-2H-1,4-benzoxazin-3(4H)-one]",≤ 1000 nM
2,"CC(O)c1cc(-c2cn(C)c(=O)c3[nH]ccc23)c2c(c1)N(C)C(=O)C(C)(C)O2 (single isomer, unassigned) [Example 83B, 6-(1-hydroxyethyl)-2,2,4-trimethyl-8-(6-methyl-7-oxo-6,7-dihydro-1H-pyrrolo[2,3-c]pyridin-4-yl)-2H-1,4-benzoxazin-3(4H)-one]",≤ 1000 nM
